Results on two molecules are retold here after US20220096650A1 (Glaxosmithkline Intellectual Property Development Limited, priority 2019, published 2022).

The test system of test [1] is cells expressing human or cynomolgus PD-1. The following applies: human versus cynomolgus PD-1; cited from earlier work.
In the next test the target is T1, cynomolgus PD-1 (cynomolgus).
T1 chain: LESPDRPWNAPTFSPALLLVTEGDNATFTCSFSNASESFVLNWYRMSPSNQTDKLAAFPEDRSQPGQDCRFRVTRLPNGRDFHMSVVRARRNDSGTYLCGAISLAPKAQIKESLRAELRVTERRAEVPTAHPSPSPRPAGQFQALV
The experiment in a line: kinetic analysis (bio-light interferometry).

Take “pembrolizumab: monoclonal IgG4 kappa antibody that binds the PD-1 receptor and blocks its interaction with PD-L1 and PD-L2”: in test [1], the “blocking of binding of human PD-1 ligands to cells expressing human or cynomolgus PD-1” value was “comparable potency”.

B1: Pembrolizumab (antibody, human IgG4 S228P, kappa, V domains shown)
VH: QVQLVQSGVEVKKPGASVKVSCKASGYTFTNYYMYWVRQAPGQGLEWMGGINPSNGGTNFNEKFKNRVTLTTDSSTTTAYMELKSLQFDDTAVYYCARRDYRFDMGFDYWGQGTTVTVSS
VL: EIVLTQSPATLSLSPGERATLSCRASKGVSTSGYSYLHWYQQKPGQAPRLLIYLASYLESGVPARFSGSGSGTDFTLTISSLEPEDFAVYYCQHSRDLPLTFGGGTKVEIKR
notes: also called MK3475
Consider B1, for which, in the test with cynomolgus PD-1, the Kd worked out at 0.118 nM.

One may read the Kd as the constant that tells how readily two partners part at equilibrium. Read a low Kd as higher affinity.
